What was measured:
[1] = molecular target: T1, LAG-3 / MHCII (Revvity HTRF Human LAG-3 / MHCII Binding Kit) (Homo sapiens, UniProt P18627); assay: HTRF
T1 sequence (P18627 23-450 limits assumed): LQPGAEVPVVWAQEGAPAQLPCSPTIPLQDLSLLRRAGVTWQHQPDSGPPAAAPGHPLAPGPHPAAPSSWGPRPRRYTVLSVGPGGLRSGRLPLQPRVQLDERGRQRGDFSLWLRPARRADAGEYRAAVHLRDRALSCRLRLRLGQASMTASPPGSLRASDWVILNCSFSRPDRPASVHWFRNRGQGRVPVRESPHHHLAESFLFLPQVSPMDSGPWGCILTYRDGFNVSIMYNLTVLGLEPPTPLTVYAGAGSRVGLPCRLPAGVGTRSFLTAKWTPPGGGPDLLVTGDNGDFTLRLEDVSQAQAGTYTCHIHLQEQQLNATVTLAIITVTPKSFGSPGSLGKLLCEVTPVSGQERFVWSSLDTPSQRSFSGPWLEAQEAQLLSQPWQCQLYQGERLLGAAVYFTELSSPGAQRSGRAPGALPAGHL

[2] = molecular target: T2, LAG-3-His (recombinant human LAG-3; discussed as LAG-3 D1) (Homo sapiens, UniProt P18627); assay: MST; assay type: binding
T2 sequence (P18627 23-450 limits assumed): T1 sequence (P18627 23-450 limits assumed)

EC50 [1]: 42.9 µM | Kd [2]: 59.2 µM
SMILES: N#Cc1ccnnc1N1CCCC(c2c[nH]c3ncccc23)C1 (centres unmarked) [N05]

Reference: doi:10.64898/2025.12.07.692800v1 (biorxiv, 2025)
